From paper PMC5037631, “Identification and characterization of putative xylose and cellobiose transporters in Aspergillus nidulans” (Biotechnology for Biofuels, 2016)

Biological target: T1, CltA (formerly XtrG; CltA::GFP) (Aspergillus nidulans, UniProt Q5ATN3)
T1 construct: gene ANIA_08347; full-length ORF from cDNA, GFP fusion, expressed in S. cerevisiae SC9721 with N. crassa beta-glucosidase gh1-1; plasma membrane
Assay: growth complementation of S. cerevisiae SC9721 gh1-1 on cellobiose
Assay type: cell-based
Settings: 0.1-2 % cellobiose as sole carbon source, 30 °C; intracellular beta-glucosidase gh1-1 coexpressed

T1 sequence (Q5ATN3 entry or part of it): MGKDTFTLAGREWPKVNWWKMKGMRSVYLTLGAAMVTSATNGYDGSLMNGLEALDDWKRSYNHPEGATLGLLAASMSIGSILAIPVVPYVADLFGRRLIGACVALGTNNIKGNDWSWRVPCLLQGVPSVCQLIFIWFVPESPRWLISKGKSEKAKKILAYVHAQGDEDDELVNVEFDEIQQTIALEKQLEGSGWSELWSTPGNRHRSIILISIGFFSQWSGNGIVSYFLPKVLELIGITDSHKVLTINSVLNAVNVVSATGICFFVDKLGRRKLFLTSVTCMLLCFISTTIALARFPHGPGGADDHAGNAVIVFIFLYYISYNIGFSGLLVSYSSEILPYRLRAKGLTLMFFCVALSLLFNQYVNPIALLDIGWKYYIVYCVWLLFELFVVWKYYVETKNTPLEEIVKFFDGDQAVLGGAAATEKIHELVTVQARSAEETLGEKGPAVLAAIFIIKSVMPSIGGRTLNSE

OC[C@H]1O[C@@H](O[C@H]2[C@H](O)[C@@H](O)C(O)O[C@@H]2CO)[C@H](O)[C@@H](O)[C@@H]1O (stereo partly shown) [cellobiose] was tested, and the “growth complementation of S. cerevisiae SC9721 gh1-1 on cellobiose” value was “CltA, and to a lesser extent CltB, is able to transport cellobiose”.
